Data taken from ChEMBL document CHEMBL4813944 (Eur J Med Chem, 2021).
Calls of active or inactive are those of the source. The rule behind the calls is not given here.

Experiments:
[1] = Cytotoxicity against human SH-SY5Y cells assessed as cell viability at 0.1 uM measured after 24 hrs by calcein-AM staining based fluorescence analysis; conditions: read-out: Activity
SH-SY5Y [2] = test: Neuroprotective activity against salsolinol-induced neurotoxicity in human SH-SY5Y cells assessed as cell viability at 0.1 uM measured after 24 hrs by calcein-AM staining based fluorescence analysis (reference value: 70.49 +/-0.51%); format: functional; conditions: read-out: Activity
SH-SY5Y [3] = test: Inhibition of Salsolinol-induced oxidative stress in human SH-SY5Y cells assessed as reduction in superoxide radical formation at 1 uM measured after 24 hrs by DHE staining based fluorescence microscopy; format: functional, cell-based
[4] = Cytotoxicity against human SH-SY5Y cells assessed as cell viability at 10 uM measured after 24 hrs by calcein-AM staining based fluorescence analysis; conditions: read-out: Activity
SH-SY5Y [5] = test: Inhibition of salsolinol-induced apoptosis in human SH-SY5Y cells assessed as caspase 3/7 activity at 0.1 uM incubated for 24 hrs using Ac-DEVD-AMC as substrate by fluorescence analysis (reference value: 100%); format: functional; parameters: scale not given: the % may be the effect or the level left
[6] = Cytotoxicity against human SH-SY5Y cells assessed as cell viability at 1 uM measured after 24 hrs by calcein-AM staining based fluorescence analysis; conditions: read-out: Activity
SH-SY5Y [7] = test: Inhibition of salsolinol-induced apoptosis in human SH-SY5Y cells assessed as caspase 3/7 activity at 1 uM incubated for 24 hrs using Ac-DEVD-AMC as substrate by fluorescence analysis (reference value: 100%); format: functional; parameters: scale not given: the % may be the effect or the level left
SH-SY5Y [8] = test: Inhibition of salsolinol-induced apoptosis in human SH-SY5Y cells assessed as appearance of necrotic cells at 1 uM measured after 24 hrs by AO/PIstaining based fluorescence microscopy; format: functional, cell-based
SH-SY5Y [9] = test: Neuroprotective activity against salsolinol-induced neurotoxicity in human SH-SY5Y cells assessed as cell death at 1 uM measured after 24 hrs by PI staining based analysis (reference value: 100%); format: functional
SH-SY5Y [10] = test: Inhibition of glutamate-induced oxidative stress in human SH-SY5Y cells assessed as superoxide radical formation at 0.1 uM measured after 4 hrs by DHE staining based fluorescence spectrophotometry (reference value: 100%); format: functional; parameters: scale not given: the % may be the effect or the level left
SH-SY5Y [11] = test: Neuroprotective activity against salsolinol-induced neurotoxicity in human SH-SY5Y cells assessed as cell viability at 1 uM measured after 24 hrs by calcein-AM staining based fluorescence analysis (reference value: 70.49 +/-0.51%); format: functional; conditions: read-out: Activity
SH-SY5Y [12] = test: Inhibition of salsolinol-induced mitochondrial depolarization in human SH-SY5Y cells assessed as mitochondrial membrane potential at 10 uM measured after 24 hrs by JC-1 staining based flow cytometry (reference value: 45.3 +/-2.09%); format: functional
SH-SY5Y [13] = test: Inhibition of salsolinol-induced mitochondrial depolarization in human SH-SY5Y cells assessed as recovery of mitochondrial membrane potential at 0.1 uM measured after 24 hrs by JC-1 staining based flow cytometry; format: functional, cell-based
SH-SY5Y [14] = test: Inhibition of glutamate-induced apoptosis in human SH-SY5Y cells assessed as reduction in caspase 3/7 activity at 0.1 to 1 uM incubated for 1 hr using Ac-DEVD-AMC as substrate by fluorescence analysis; format: functional; conditions: dose 0.1-1 µM
SH-SY5Y [15] = test: Inhibition of glutamate-induced mitochondrial depolarization in human SH-SY5Y cells assessed as recovery of mitochondrial membrane potential at 0.1 to 1 uM incubated for 1 hr by JC10 dye based fluorescence analysis; format: functional, cell-based; conditions: dose 0.1-1 µM
SH-SY5Y [16] = test: Inhibition of glutamate-induced oxidative stress in human SH-SY5Y cells assessed as superoxide radical formation at 1 uM measured after 4 hrs by DHE staining based fluorescence spectrophotometry (reference value: 100%); format: functional; parameters: scale not given: the % may be the effect or the level left
SH-SY5Y [17] = test: Inhibition of glutamate-induced oxidative stress in human SH-SY5Y cells assessed as reduction in superoxide radical formation at 1 uM measured after 4 hrs by DHE staining based fluorescence microscopy; format: functional, cell-based
SH-SY5Y [18] = test: Inhibition of Salsolinol-induced oxidative stress in human SH-SY5Y cells assessed as superoxide radical formation at 0.1 uM measured after 24 hrs by DHE staining based fluorescence spectrophotometry (reference value: 100%); format: functional; parameters: scale not given: the % may be the effect or the level left
SH-SY5Y [19] = test: Inhibition of Salsolinol-induced oxidative stress in human SH-SY5Y cells assessed as superoxide radical formation at 1 uM measured after 24 hrs by DHE staining based fluorescence spectrophotometry (reference value: 100%); format: functional; parameters: scale not given: the % may be the effect or the level left
SH-SY5Y [20] = test: Neuroprotective activity against glutamate-induced neurotoxicity in human SH-SY5Y cells assessed as cell death at 1 uM measured after 24 hrs by PI staining based assay (reference value: 100%); format: functional
SH-SY5Y [21] = test: Neuroprotective activity against salsolinol-induced neurotoxicity in human SH-SY5Y cells assessed as cell death at 0.1 uM measured after 24 hrs by PI staining based analysis (reference value: 100%); format: functional
[22] = Inhibition of salsolinol-induced mPTP opening in human SH-SY5Y cells assessed as fold change in fluorescence intensity at 1 uM measured after 24 hrs by calcein AM/CoCl2 based fluorescence microscopic analysis (reference value: 0.49 +/-0.02); format: functional
SH-SY5Y [23] = test: Inhibition of glutamate-induced apoptosis in human SH-SY5Y cells assessed as caspase 3/7 activity at 0.5 uM incubated for 1 hr using Ac-DEVD-AMC as substrate by fluorescence analysis (reference value: 100%); format: functional; parameters: scale not given: the % may be the effect or the level left
SH-SY5Y [24] = test: Inhibition of glutamate-induced apoptosis in human SH-SY5Y cells assessed as caspase 3/7 activity at 0.05 uM incubated for 1 hr using Ac-DEVD-AMC as substrate by fluorescence analysis (reference value: 100%); format: functional; parameters: scale not given: the % may be the effect or the level left
SH-SY5Y [25] = test: Inhibition of salsolinol-induced apoptosis in human SH-SY5Y cells assessed as caspase 3/7 activity at 0.05 uM incubated for 24 hrs using Ac-DEVD-AMC as substrate by fluorescence analysis (reference value: 100%); format: functional; parameters: scale not given: the % may be the effect or the level left
SH-SY5Y [26] = test: Inhibition of salsolinol-induced apoptosis in human SH-SY5Y cells assessed as caspase 3/7 activity at 0.5 uM incubated for 24 hrs using Ac-DEVD-AMC as substrate by fluorescence analysis (reference value: 100%); format: functional; parameters: scale not given: the % may be the effect or the level left

C=C(C(=O)OCc1c[nH]nn1)[C@@H]1CC[C@]2(COC(C)=O)CC[C@]3(C)[C@H](CC[C@@H]4[C@@]5(C)CC[C@H](OC(C)=O)C(C)(C)[C@@H]5CC[C@]43C)[C@@H]12
viability at 24 h, 0.1 µM [1]: 97.4% | viability at 0.1 µM (SH-SY5Y [2]): 81.4% | inhibition (SH-SY5Y [3]): Active | viability at 24 h, 10 µM [4]: 30.5% | Activity (SH-SY5Y [5]): 42.2% | viability at 24 h, 1 µM [6]: 119% | Activity (SH-SY5Y [7]): 24.3% | Activity (SH-SY5Y [8]): Active | Activity (SH-SY5Y [9]): 59.3% | Activity (SH-SY5Y [10]): 75.7% | viability at 1 µM (SH-SY5Y [11]): 97.9% | Activity (SH-SY5Y [12]): inactive | Activity (SH-SY5Y [13]): Active | inhibition (INH) (SH-SY5Y [14]): 6% | Activity (SH-SY5Y [15]): inactive | Activity (SH-SY5Y [16]): 72.2% | inhibition (SH-SY5Y [17]): Active | Activity (SH-SY5Y [18]): 83.7% | Activity (SH-SY5Y [19]): 81% | Activity (SH-SY5Y [20]): 85% | Activity (SH-SY5Y [21]): 62.3% | fold change (FC) [22]: 1.14

CC(=O)N[C@@H](CC(=O)O)C(=O)N[C@@H](CCC(=O)O)C(=O)N[C@H](C(=O)N[C@@H](CC(=O)O)C(=O)O)C(C)C
Activity (SH-SY5Y [23]): 13.7% | Activity (SH-SY5Y [24]): 27.8% | Activity (SH-SY5Y [25]): 36.9% | Activity (SH-SY5Y [26]): 30.8%
